Measurements published in article PMC10709440, “High-throughput ligand profile characterization in novel cell lines expressing seven heterologous insect olfactory receptors for the detection of volatile plant biomarkers” (Scientific Reports, 2023).
Several values for one entry are separate records, joined by “and”; a condition that tells them apart may be missing. Equal entries are not always repeated.

Columns and labels:
Drosophila OR10a = target: T1, Drosophila OR10a (Drosophila melanogaster, UniProt Q9VYZ1); assay: Calcium ion fluorescence (GCaMP6) assay, OR10a stable HEK293 cell line; format: cell-based; settings: for activation at 1 µM: HEK293, 1 μM VOC; for activation at 1 µM / activation at 10 µM / activation at 100 µM: 50 μM VUAA1 = 1, responses not exceeding 0.05 considered 0, read-out: OR10a Average response (VUAA1-normalized); for activation at 10 µM: HEK293, 10 μM VOC; for activation at 100 µM: HEK293, 100 μM VOC; for OR10a response (VUAA1-normalized) at 1 μM / OR10a response (VUAA1-normalized) at 10 μM / OR10a response (VUAA1-normalized) at 100 μM: OR10a cell line; for OR10a response (VUAA1-normalized) at 1 μM: VOC concentration 1 μM; for OR10a response (VUAA1-normalized) at 10 μM: VOC concentration 10 μM; for OR10a response (VUAA1-normalized) at 100 μM: VOC concentration 100 μM
T1 construct: expressed in transfected cells
T1 sequence (Q9VYZ1 1-406): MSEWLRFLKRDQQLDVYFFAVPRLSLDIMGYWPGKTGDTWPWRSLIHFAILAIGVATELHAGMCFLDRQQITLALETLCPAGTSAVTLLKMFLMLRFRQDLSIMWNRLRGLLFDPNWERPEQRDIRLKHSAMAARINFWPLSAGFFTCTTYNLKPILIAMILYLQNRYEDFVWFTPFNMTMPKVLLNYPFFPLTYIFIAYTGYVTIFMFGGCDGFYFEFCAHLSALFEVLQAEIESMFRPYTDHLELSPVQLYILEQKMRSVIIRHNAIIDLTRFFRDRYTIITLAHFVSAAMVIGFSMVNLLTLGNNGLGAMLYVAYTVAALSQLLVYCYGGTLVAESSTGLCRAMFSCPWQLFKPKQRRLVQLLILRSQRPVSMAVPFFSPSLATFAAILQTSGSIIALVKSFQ
T1 sequence (Q9VNB5 1-486 partner): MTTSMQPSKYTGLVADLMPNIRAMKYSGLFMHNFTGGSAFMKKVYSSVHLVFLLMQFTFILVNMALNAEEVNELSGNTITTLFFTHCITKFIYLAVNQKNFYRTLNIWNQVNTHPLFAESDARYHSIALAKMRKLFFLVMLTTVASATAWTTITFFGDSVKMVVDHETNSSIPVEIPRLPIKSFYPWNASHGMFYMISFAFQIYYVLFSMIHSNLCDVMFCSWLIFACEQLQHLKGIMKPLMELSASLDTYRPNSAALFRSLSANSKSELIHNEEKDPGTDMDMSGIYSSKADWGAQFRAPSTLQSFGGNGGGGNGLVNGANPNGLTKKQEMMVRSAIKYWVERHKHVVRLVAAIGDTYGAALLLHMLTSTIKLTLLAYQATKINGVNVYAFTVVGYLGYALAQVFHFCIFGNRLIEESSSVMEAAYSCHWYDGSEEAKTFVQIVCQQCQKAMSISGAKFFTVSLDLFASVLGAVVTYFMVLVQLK
Description: (§1) These VUAA1 normalized ∆F values were used to compare the different receptors and ligands.
(§2) The concentration-dependent effect of the reference ligands on their cognate cell lines was examined in more detail. Twelve different ligand concentrations were measured on each cell line in an overall 0.01 μM to 100 μM concentration range with 5 repetitions with three technical replicates each time.
(§3) Twelve thousand to 18,000 cells were plated into each well of a black wall, transparent bottom 384-well microplate (Greiner) 48 h or 72 h before the measurements and were simultaneously treated with 1 μg/mL doxycycline. […] The plate has 24 columns, thus we could record responses in up to eight different cell lines in each plate. On the day of the experiment, the growth medium was replaced with 20 µL assay buffer/well (140 mM NaCl, 5 mM KCl, 2 mM CaCl2, 1 mM MgCl2, 5 mM HEPES-Na, 20 mM glucose, pH 7.3, 340 mOsm). […] Baseline fluorescence (F0) was recorded for 5 s, after which 7 µL VOC buffer (140 mM NaCl, 5 mM KCl, 2 mM CaCl2, 1 mM MgCl2, 5 mM HEPES-Na, 31 mM glucose, 0.1% DMSO, pH 7.3, 340 mOsm) was injected into each well in one row and the fluorescence response was recorded for an additional 30 s, at a rate of one read/sec. VOC solutions (VOC buffer with 4× concentration of the final measured VOC concentration, 9 µL/well was injected) were measured on the same wells in a second round with the same protocol. Each individual concentration of a specific VOC sample was recorded in three wells for the same cell line on the same microplate. The raw data were exported in xls file format, F0 and FMAX values, and the fluorescence intensity changes (∆F) were calculated in Excel (Microsoft) (Supplementary file Data summary.xlsx) using the following equation: ΔF=FMAX-F0/F0 (see also Fig. 1C). On each plate, we recorded the response of each cell line to 50 µM VUAA1. The average of these ∆F values of each cell line were used to calculate the VUAA1-normalized values for the rest of the plate, by dividing VOC response ∆F values by the average VUAA1 response ∆F value of the corresponding OR cell line. Each VOC-OR combination was measured three times as technical replicates. […] The average of these replicates were used as one ∆F and VUAA1-normalized ∆F in the following analysis.
(§4) In the next rows we tested the reference VOCs (or other VOCs known to activate the corresponding cell lines), in order to test if all cell lines are responsive. The remaining rows were used to test VOCs with unknown effect.
(§5) The recorded FMAX, F0, ∆F, VUAA1-normalized ∆F values, as well as the OR name, the name of the tested sample, and the final concentration for each well were copied into supplementary file Data summary.xlsx, that was used to summarize all the plates recorded. Here, the averages of the measurements were calculated for each receptor-VOC-concentration combination.

Drosophila OR13a = target: T2, Drosophila OR13a (Drosophila melanogaster, UniProt Q9VXL0); assay: Calcium ion fluorescence (GCaMP6) assay, OR13a stable HEK293 cell line; format: cell-based; settings: for activation at 1 µM: HEK293, read-out: OR13a Average response (VUAA1-normalized), 1 μM VOC; for activation at 1 µM / activation at 10 µM / activation at 100 µM: 50 μM VUAA1 = 1, responses not exceeding 0.05 considered 0; for activation at 10 µM: HEK293, read-out: OR13a Average response (VUAA1-normalized), 10 μM VOC; for activation at 100 µM: HEK293, read-out: OR13a Average response (VUAA1-normalized), 100 μM VOC; for OR13a response (VUAA1-normalized) at 1 μM / OR13a response (VUAA1-normalized) at 10 μM / OR13a response (VUAA1-normalized) at 100 μM: OR13a cell line; for OR13a response (VUAA1-normalized) at 1 μM: VOC concentration 1 μM; for OR13a response (VUAA1-normalized) at 10 μM: VOC concentration 10 μM; for OR13a response (VUAA1-normalized) at 100 μM: VOC concentration 100 μM
T2 construct: expressed in transfected cells
T2 sequence (Q9VXL0 1-418): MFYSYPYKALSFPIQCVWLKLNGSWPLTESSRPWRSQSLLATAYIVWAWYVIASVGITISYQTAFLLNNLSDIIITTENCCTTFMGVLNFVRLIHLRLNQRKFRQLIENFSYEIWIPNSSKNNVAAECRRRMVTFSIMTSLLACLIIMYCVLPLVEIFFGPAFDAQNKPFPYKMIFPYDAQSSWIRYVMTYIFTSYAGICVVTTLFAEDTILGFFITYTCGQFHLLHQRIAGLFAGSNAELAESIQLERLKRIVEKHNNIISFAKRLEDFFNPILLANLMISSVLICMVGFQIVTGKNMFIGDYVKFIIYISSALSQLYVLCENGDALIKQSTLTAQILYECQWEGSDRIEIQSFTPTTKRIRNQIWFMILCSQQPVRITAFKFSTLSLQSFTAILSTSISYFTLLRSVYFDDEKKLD
T2 sequence (Q9VNB5 1-486 partner): T1 sequence (Q9VNB5 1-486 partner)
Description: as §1, §2, §3, §4, §5

[1] = ligand concentration 1 (unit not given), 0.05 threshold, values below shown as 0
[2] = ligand concentration 10 (unit not given), 0.05 threshold, values below shown as 0
[3] = ligand concentration 100 (unit not given), 0.05 threshold, values below shown as 0
[4] = ligand concentration 1 (unit not given), threshold 0.05, below shown as 0
[5] = ligand concentration 10 (unit not given), threshold 0.05, below shown as 0
[6] = ligand concentration 100 (unit not given), threshold 0.05, below shown as 0

CCCCCCCCCCC [undecane]
activation at 1 µM (Drosophila OR10a): 0% | activation at 10 µM (Drosophila OR10a): 0% | activation at 100 µM (Drosophila OR10a): 0% | OR10a response (VUAA1-normalized) at 1 μM (Drosophila OR10a): 0.00 | OR10a response (VUAA1-normalized) at 10 μM (Drosophila OR10a): 0.00 | OR10a response (VUAA1-normalized) at 100 μM (Drosophila OR10a): 0.00 | DF norm AVERAGE OR10a (Drosophila OR10a; [1]): 0 | DF norm AVERAGE OR10a (Drosophila OR10a; [2]): 0 | DF norm AVERAGE OR10a (Drosophila OR10a; [3]): 0 | activation at 1 µM (Drosophila OR13a): 0% | activation at 10 µM (Drosophila OR13a): 0% | activation at 100 µM (Drosophila OR13a): 0% | OR13a response (VUAA1-normalized) at 1 μM (Drosophila OR13a): 0.00 | OR13a response (VUAA1-normalized) at 10 μM (Drosophila OR13a): 0.00 | OR13a response (VUAA1-normalized) at 100 μM (Drosophila OR13a): 0.00 | DF norm AVERAGE OR13a (Drosophila OR13a; [1]): 0 | DF norm AVERAGE OR13a (Drosophila OR13a; [2]): 0 | DF norm AVERAGE OR13a (Drosophila OR13a; [3]): 0

COC(=O)c1ccccc1O [methyl salicylate]
EC50 (Drosophila OR10a; AVERAGE EC50, from the average LOG EC50 of 5 biological replicates, unit inferred): 75.5 nM | EC50 (Drosophila OR10a; EC50, FITTED AVERAGE CURVE, fit of the averaged dose-response curve, unit inferred): 68.6 nM | EC50 (Drosophila OR10a; EC50, OR10a cell line, fitted Hill equation, Hill coefficient constrained to 1, maximal response max 1): 80 nM | EC50 (Drosophila OR10a; EC50 AVERAGE (arithmetic average of fitted EC50), average of 5 biological replicates, unit inferred): 90.1 nM | activation at 1 µM (Drosophila OR10a): 49% | activation at 10 µM (Drosophila OR10a): 55% | activation at 100 µM (Drosophila OR10a): 95% | Emax (Drosophila OR10a; HEK293, read-out: VUAA1 normalized MAX response): 44% | n, FITTED AVERAGE CURVE (Drosophila OR10a; Hill coefficient of the fit of the averaged curve): 0.855 | OR10a response (VUAA1-normalized) at 1 μM (Drosophila OR10a): 0.49 | OR10a response (VUAA1-normalized) at 10 μM (Drosophila OR10a): 0.55 | OR10a response (VUAA1-normalized) at 100 μM (Drosophila OR10a): 0.95 | AVERAGE MAX (Drosophila OR10a; average of 5 biological replicates): 0.4437 | response, AVERAGE (Drosophila OR10a; concentration 0.008, average of biological replicates): 0.06886 | response, AVERAGE (Drosophila OR10a; concentration 0.016, average of biological replicates): 0.1014 | response, AVERAGE (Drosophila OR10a; concentration 0.032, N 1): 0.1576 | response, AVERAGE (Drosophila OR10a; concentration 0.075, average of biological replicates): 0.2051 | response, AVERAGE (Drosophila OR10a; concentration 0.15, average of biological replicates): 0.2778 | response, AVERAGE (Drosophila OR10a; concentration 0.3, average of biological replicates): 0.4027 | response, AVERAGE (Drosophila OR10a; concentration 0.6, average of biological replicates): 0.307 | response, AVERAGE (Drosophila OR10a; concentration 1.25, average of biological replicates): 0.417 | response, AVERAGE (Drosophila OR10a; concentration 2.5, average of biological replicates): 0.471 | response, AVERAGE (Drosophila OR10a; concentration 5, average of biological replicates): 0.4362 | response, AVERAGE (Drosophila OR10a; concentration 10, average of biological replicates): 0.4759 | response, AVERAGE (Drosophila OR10a; concentration 20, average of biological replicates): 0.4313 | response, AVERAGE (Drosophila OR10a; concentration 40, average of biological replicates): 0.3644 | MAX, fitted average curve (Drosophila OR10a; fit of the averaged dose-response curve): 0.4394 | MAX (fitted parameter) (Drosophila OR10a; individual biological replicates, normalized response): 0.4829 and 0.2572 and 0.5237 and 0.5964 and 0.3582 | DF norm AVERAGE OR10a (Drosophila OR10a; [4]): 0.4904 | DF norm AVERAGE OR10a (Drosophila OR10a; [5]): 0.5549 | DF norm AVERAGE OR10a (Drosophila OR10a; [6]): 0.9525 | activation at 1 µM (Drosophila OR13a): 0% | activation at 10 µM (Drosophila OR13a): 1% | activation at 100 µM (Drosophila OR13a): 21% | OR13a response (VUAA1-normalized) at 1 μM (Drosophila OR13a): 0.00 | OR13a response (VUAA1-normalized) at 10 μM (Drosophila OR13a): 0.00 | OR13a response (VUAA1-normalized) at 100 μM (Drosophila OR13a): 0.21 | DF norm AVERAGE OR13a (Drosophila OR13a; [4]): 0 | DF norm AVERAGE OR13a (Drosophila OR13a; [5]): 0 | DF norm AVERAGE OR13a (Drosophila OR13a; [6]): 0.213
